The values that follow come from ChEMBL document CHEMBL1201862, “PubChem BioAssay data set” (2004).

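Five compound concentrations were applied to cells in 96-well plates for 48 hours; endpoints were derived by simple linear interpolation of the resulting dose-response curve. GI50 is the concentration that inhibits growth by half.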 Calls of active or inactive are those of the source. Cut-off read from the data, not from the text of the source: active = GI50 up to about 1.1 µM and inactive = higher. Where only a bound is given, the exact number is not on record here.

Among the test systems are T47D; 786-0; A549; SK-MEL-2; BT-549; MOLT-4; CAKI-1; MDA-N; HCC 2998; MDA-MB-231; PC-3; MCF7; CCRF-CEM; HCT-116; MDA-MB-435; SN12C; HT-29; NCI-H460; K562; NCI-H522.
Assay in all cases: NCI anticancer screen, dose series, 48 h

Consider `Cc1cn(C2CC(n3cc(Cn4cc(Br)c(=O)[nH]c4=O)nn3)C(CO)O2)c(=O)[nH]c1=O` (stereo not drawn), for which the GI50 was > 100 µM (inactive) with T47D; 93.1 µM (inactive) in the test on 786-0; > 100 µM (inactive) in the test with A549; > 100 µM (inactive) in the test on SK-MEL-2; > 100 µM (inactive) in the test on BT-549; 30.7 µM (inactive) with MOLT-4. The GI50 in the test with CAKI-1 is > 100 µM (inactive); in the test with MDA-N, 62.2 µM (inactive); in the test on HCC 2998, > 100 µM (inactive); in the test on MDA-MB-231, > 100 µM (inactive); with PC-3, > 100 µM (inactive); in the test with MCF7, > 100 µM (inactive). Further, the GI50 with CCRF-CEM was 0.668 µM (active); with HCT-116 it was 52.5 µM (inactive); in the test on MDA-MB-435, 42.1 µM (inactive); in the test with SN12C, > 100 µM (inactive).
`C/C(=N\Nc1nc2ccccc2o1)c1ccc2ccccc2n1`: the GI50 was 0.279 µM (active) with T47D; 3.68 µM (inactive) in the test on 786-0; 4.2 µM (inactive) in the test with A549; 1.73 µM (inactive) in the test on SK-MEL-2; 20.7 µM (inactive) in the test with BT-549; 1.89 µM (inactive) in the test with HT-29. The GI50 in the test with MOLT-4 is 1.97 µM (inactive); in the test with CAKI-1, 1 µM (active); in the test with NCI-H460, 3.7 µM (inactive); in the test on MDA-N, 6.49 µM (inactive); in the test with MDA-MB-231, 2.98 µM (inactive); in the test with PC-3 it was 1.83 µM (inactive). Moreover, the GI50 is 6.12 µM (inactive) in the test with MCF7; 2.04 µM (inactive) in the test with CCRF-CEM; 2.55 µM (inactive) with HCT-116; 3.67 µM (inactive) in the test on K562; 6.35 µM (inactive) in the test on MDA-MB-435; 3.42 µM (inactive) in the test with SN12C. Besides, in the test on NCI-H522, the GI50 was 1.94 µM (inactive).
In the case of `NS(=O)(=O)c1ccc(NCc2cccc3c(=O)c4ccc(Cl)cc4oc23)cc1`, the GI50 is 81.3 µM (inactive) in the test on T47D; > 58.5 µM (inactive) with 786-0; > 86.1 µM (inactive) in the test with A549; 68.7 µM (inactive) in the test with SK-MEL-2; 42.5 µM (inactive) with BT-549; 31.4 µM (inactive) in the test on HT-29. Also, the GI50 with MOLT-4 is 19.7 µM (inactive); in the test with CAKI-1, 41 µM (inactive); with MDA-N it was 23.1 µM (inactive); with HCC 2998 it was > 82.4 µM (inactive); with MDA-MB-231, 52 µM (inactive); in the test on PC-3, 31 µM (inactive). The GI50 was 8.34 µM (inactive) in the test on MCF7; 4.75 µM (inactive) with CCRF-CEM; 6.17 µM (inactive) with HCT-116; 12.5 µM (inactive) with K562; 19.7 µM (inactive) with MDA-MB-435; > 56.6 µM (inactive) in the test with SN12C. Also, the GI50 in the test with NCI-H522 was > 39.2 µM (inactive).
Take `Clc1c(Cl)c(Cl)c2nn(C3CCCO3)nc2c1Cl` (stereo not drawn): the GI50 in the test on T47D is 37 µM (inactive); with 786-0, 70.3 µM (inactive); with A549, 37.4 µM (inactive); in the test on SK-MEL-2, 68.1 µM (inactive); in the test on BT-549 it was 26.8 µM (inactive); in the test on HT-29, 49.1 µM (inactive). The GI50 is 30.5 µM (inactive) in the test on MOLT-4; 80.4 µM (inactive) in the test on CAKI-1; 30.5 µM (inactive) with MDA-N; 91 µM (inactive) in the test with HCC 2998; 76.7 µM (inactive) in the test with MDA-MB-231; 82 µM (inactive) in the test with PC-3. Further, the GI50 is 46.3 µM (inactive) in the test with MCF7; 82.2 µM (inactive) in the test on CCRF-CEM; 50.6 µM (inactive) in the test on HCT-116; 40.7 µM (inactive) with K562; 44.3 µM (inactive) with MDA-MB-435; 46.5 µM (inactive) in the test with SN12C. Further, the GI50 in the test with NCI-H522 was 37.3 µM (inactive).
In the case of `CCOC(=O)c1c[nH]c(C(=O)C=[N+]=[N-])c1C1CCN(CC)C1=S` (stereo not drawn), the GI50 in the test on T47D, with 786-0, with A549, in the test on SK-MEL-2, in the test on BT-549 and with HT-29 was > 100 µM (inactive) throughout. Besides, the GI50 in the test on MOLT-4 is > 100 µM (inactive); in the test on CAKI-1, > 100 µM (inactive); in the test on NCI-H460, 93.3 µM (inactive); in the test on MDA-N, > 100 µM (inactive); in the test with HCC 2998, > 100 µM (inactive); with MDA-MB-231 it was > 100 µM (inactive). For the same compound, the GI50 in the test on PC-3, in the test with MCF7, with HCT-116, in the test on K562, in the test with MDA-MB-435 and in the test on NCI-H522 was > 100 µM (inactive) each time.
As for `Cn1c(=O)c2nc(CCS)[nH]c2n(C)c1=O`, the GI50 in the test on T47D is > 100 µM (inactive); in the test on 786-0, 51.2 µM (inactive); with A549 it was > 100 µM (inactive); in the test with SK-MEL-2 it was > 100 µM (inactive); in the test on BT-549 it was > 100 µM (inactive); in the test with HT-29, > 100 µM (inactive). In addition, the GI50 in the test with MOLT-4, in the test on CAKI-1, in the test with NCI-H460, with MDA-N, with MDA-MB-231 and in the test on PC-3 was > 100 µM (inactive) throughout. The GI50 was > 100 µM (inactive) in the test with MCF7; 55 µM (inactive) in the test with CCRF-CEM; > 100 µM (inactive) in the test with HCT-116; > 100 µM (inactive) with K562; > 100 µM (inactive) with MDA-MB-435; > 100 µM (inactive) with SN12C. Besides, the GI50 in the test with NCI-H522 is > 100 µM (inactive).
In the case of `CC(C)(C)[Si](C)(C)OCC1OC(n2ccc(=O)[nH]c2=O)C(O[Si](C)(C)C(C)(C)C)/C1=N/O` (stereo not drawn), the GI50 was 6.22 µM (inactive) in the test on T47D; 2.64 µM (inactive) in the test with 786-0; 3.14 µM (inactive) with A549; 3.21 µM (inactive) in the test on SK-MEL-2; 7.6 µM (inactive) in the test on BT-549; 2.84 µM (inactive) with HT-29. The GI50 is 2.43 µM (inactive) with MOLT-4; 7.71 µM (inactive) with CAKI-1; 3.44 µM (inactive) with NCI-H460; 4.08 µM (inactive) in the test on MDA-N; 3.37 µM (inactive) in the test with HCC 2998; 12.4 µM (inactive) in the test with MDA-MB-231. Moreover, the GI50 was 3.99 µM (inactive) in the test with PC-3; 3.47 µM (inactive) with MCF7; 3.29 µM (inactive) with CCRF-CEM; 2.45 µM (inactive) with HCT-116; 2.77 µM (inactive) in the test on K562; 3.11 µM (inactive) with MDA-MB-435. Moreover, in the test on SN12C, the GI50 is 3.3 µM (inactive).
Turning to `CCNc1cc2oc(=O)cc(C(F)(F)F)c2cc1C`, the GI50 in the test on T47D, in the test with 786-0, with A549, in the test on SK-MEL-2, in the test with BT-549 and with HT-29 was > 100 µM (inactive) throughout. Also, the GI50 with MOLT-4, in the test on CAKI-1, in the test on NCI-H460, in the test with MDA-N, in the test on HCC 2998 and in the test with MDA-MB-231 was > 100 µM (inactive) each time. Besides, the GI50 in the test with PC-3, in the test with MCF7, in the test with HCT-116, with K562, in the test with MDA-MB-435 and in the test on SN12C was > 100 µM (inactive) in each case. In addition, the GI50 with NCI-H522 was > 100 µM (inactive).
As to `CC(C)NC1(C(N)=O)CCN(Cc2ccccc2)CC1`, the GI50 in the test with T47D, in the test with 786-0, in the test with A549, in the test on SK-MEL-2, with BT-549 and in the test with HT-29 was > 100 µM (inactive) in each case. Moreover, the GI50 with MOLT-4, in the test with CAKI-1, in the test on NCI-H460, in the test with MDA-N, in the test on MDA-MB-231 and with PC-3 was > 100 µM (inactive) throughout. The GI50 in the test with MCF7, in the test with HCT-116, in the test on K562, in the test with MDA-MB-435, in the test on SN12C and in the test on NCI-H522 was > 100 µM (inactive) throughout.
On to `COC(=O)CCC(NC(=O)C(C)NC(=O)COC1C(O)C(OC(=O)CCNc2c3ccccc3nc3cccc([N+](=O)[O-])c23)OC(OCc2ccccc2)C1NC(C)=O)C(N)=O` (stereo not drawn), for which the GI50 with T47D was > 10 µM (inactive); in the test with 786-0, 3.56 µM (inactive); with A549, > 10 µM (inactive); with SK-MEL-2, 1.93 µM (inactive); with BT-549, > 10 µM (inactive); in the test with HT-29, 2.62 µM (inactive). Moreover, the GI50 in the test with MOLT-4 was 3 µM (inactive); in the test on NCI-H460 it was > 10 µM (inactive); with MDA-N, 2.24 µM (inactive); in the test on HCC 2998 it was 2.76 µM (inactive); with MDA-MB-231, 3.48 µM (inactive); with PC-3, > 10 µM (inactive). Further, the GI50 is 2.28 µM (inactive) in the test with MCF7; > 10 µM (inactive) in the test with CCRF-CEM; 1.64 µM (inactive) in the test on HCT-116; 1.91 µM (inactive) in the test with K562; 3.39 µM (inactive) in the test with MDA-MB-435; 4.2 µM (inactive) in the test on SN12C.
Consider `COC(=O)c1cc(C)n(CN(Cc2ccccc2)Cn2nc(C(=O)OC)cc2C)n1`, for which the GI50 with T47D is > 48.3 µM (inactive); with 786-0, 68.1 µM (inactive); in the test with A549 it was > 100 µM (inactive); with SK-MEL-2, > 100 µM (inactive); in the test with BT-549 it was > 100 µM (inactive); in the test with HT-29, > 52.7 µM (inactive). The GI50 was > 100 µM (inactive) in the test with MOLT-4; > 69.2 µM (inactive) in the test with CAKI-1; > 100 µM (inactive) with NCI-H460; > 92.5 µM (inactive) in the test on MDA-N; > 100 µM (inactive) in the test with MDA-MB-231; > 65.5 µM (inactive) in the test on PC-3. The GI50 is > 66.5 µM (inactive) with MCF7; 17.1 µM (inactive) in the test with CCRF-CEM; > 43 µM (inactive) in the test with HCT-116; > 100 µM (inactive) in the test on K562; > 100 µM (inactive) in the test with MDA-MB-435; > 100 µM (inactive) in the test with SN12C. The GI50 in the test with NCI-H522 was > 100 µM (inactive).
